Laboratory results: patent publication US20160051665A1, “INDUCTION OF IMMUNE RESPONSE” (priority 2010, published 2016)

Tests used:
oligosaccharide addition = settings: cited from earlier work
[1] = system: HLA-A2 expressing T2 target cells; assay: interferon-γ ELISpot: peptide-primed CTLs against peptide-pulsed T2 cells; assay type: cell-based, human; settings: PBMCs of healthy HLA-A2 donors stimulated in vitro with peptide; FIG. 2A
Protocol: Heparinized blood from healthy HLA-A2 donors was purchased from Research Blood Components, LLC, (Brighton, Mass.). Peripheral blood mononuclear cells were purified and cultured as described (13, 21). After initial stimulation with synthetic peptide, T cells were re-stimulated with CD4/CD8 T cell depleted autologous monocytes pulsed with synthetic peptide at 10 μg/ml for 5 days. IL-2 treatment and in vitro re-stimulation were repeated thrice prior to use of in vitro expanded T cells in ELISpot assays.
In vitro expanded CTLs were used as effectors in ELISpot assays to assess antigen stimulated interferon-γ release according to the manufacturer's instructions (BD-Pharmingen, San Jose, Calif.). Target cells were HepG2 human hepatoma cells (HBV negative; American Type Culture Collection) or HBV-containing HepG2.2.15 cells (22). […]
Peptides presented on the surface of a cell in the context of the MHC class I complex should be recognized with high sensitivity upon incubation with cognate peptide-primed CTLs, with specific killing of the target cells. […] Target cell recognition was quantified by interferon-γ ELISpot assay.
The ability of in vitro generated CTLs to recognize and secrete interferon-γ was evaluated by ELISpot assay. […] The P value was calculated from a Student's t-Test analysis of experimental results.

glucosidase I = molecular target: T1, glucosidase I (Homo sapiens, UniProt Q13724); settings: cited from earlier work
T1 sequence (Q13724 1-837): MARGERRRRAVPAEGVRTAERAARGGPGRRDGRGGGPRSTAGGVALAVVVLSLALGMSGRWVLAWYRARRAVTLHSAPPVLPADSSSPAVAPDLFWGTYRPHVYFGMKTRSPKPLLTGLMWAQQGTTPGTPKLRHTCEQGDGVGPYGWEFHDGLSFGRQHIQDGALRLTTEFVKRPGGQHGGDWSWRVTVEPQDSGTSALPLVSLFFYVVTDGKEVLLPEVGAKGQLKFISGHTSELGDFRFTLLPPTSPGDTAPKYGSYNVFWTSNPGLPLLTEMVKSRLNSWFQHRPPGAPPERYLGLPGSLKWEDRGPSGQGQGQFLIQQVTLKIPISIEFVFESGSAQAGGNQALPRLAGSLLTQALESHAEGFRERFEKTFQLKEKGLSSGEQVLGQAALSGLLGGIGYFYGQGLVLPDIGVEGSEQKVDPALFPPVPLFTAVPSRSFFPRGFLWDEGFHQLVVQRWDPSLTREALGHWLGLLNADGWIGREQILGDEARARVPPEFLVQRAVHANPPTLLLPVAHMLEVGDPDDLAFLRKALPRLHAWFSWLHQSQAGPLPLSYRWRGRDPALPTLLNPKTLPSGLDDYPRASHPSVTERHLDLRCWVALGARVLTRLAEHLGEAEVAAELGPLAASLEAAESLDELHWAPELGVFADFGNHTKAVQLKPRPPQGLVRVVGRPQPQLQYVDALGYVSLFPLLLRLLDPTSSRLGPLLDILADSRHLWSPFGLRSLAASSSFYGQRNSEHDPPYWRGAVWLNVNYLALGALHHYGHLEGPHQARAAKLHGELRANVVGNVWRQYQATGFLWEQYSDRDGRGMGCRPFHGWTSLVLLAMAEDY

[2] = system: woodchuck hepatitis virus (WHV); settings: previous study (ref. 11); cited from earlier work

Molecule | prevention of oligosaccharide addition (oligosaccharide addition) | elicitation of specific CTLs that recognize T2 target cells [1] | other results
OC[C@H]1NC[C@H](O)[C@@H](O)[C@@H]1O [deoxynojirimycin] | prevents oligosaccharide addition some fraction of the time |  | 
KPSDGNCTC [N-peptide] |  | effective elicitors of specific CTLs | 
O[C@H]1[C@H](O)[C@@H](O)CN2CC[C@H](O)[C@H]12 [Castanospermine] | does not |  | potency as inhibitor of glucosidase I relative to deoxynojirimycin (glucosidase I): more potent inhibitors of glucosidase I than deoxynojirimycin
CCCCCCCCCN1C[C@H](O)[C@@H](O)[C@H](O)[C@H]1CO [N-nonyl deoxynojirimycin] |  |  | antiviral activity in woodchucks [2]: antiviral activity had previously been observed
KPSDGDCTC [D-peptide, de-N-glycosylated 'D' substituted HBs peptide] |  | effective elicitors of specific CTLs | 
